Measured values as given in ChEMBL document CHEMBL1138357 (J Med Chem, 2007).
pKi: −log10 of the molar value. Activity calls are given as the source filed them. The rule behind the calls is not given here.

Columns and labels:
[1] = target: Melatonin receptor type 1A (Homo sapiens, UniProt P48039); test: Displacement of 2-[125I]iodomelatonin from human cloned MT1 receptor expressed in […] NIH3T3 cells; type: cell-based
[2] = target: T1, Melatonin receptor type 1B (Homo sapiens, UniProt P49286); test: Displacement of 2-[125I]iodomelatonin from human cloned MT2 receptor expressed in […] NIH3T3 cells; type: cell-based
T1 sequence (P49286 whole entry): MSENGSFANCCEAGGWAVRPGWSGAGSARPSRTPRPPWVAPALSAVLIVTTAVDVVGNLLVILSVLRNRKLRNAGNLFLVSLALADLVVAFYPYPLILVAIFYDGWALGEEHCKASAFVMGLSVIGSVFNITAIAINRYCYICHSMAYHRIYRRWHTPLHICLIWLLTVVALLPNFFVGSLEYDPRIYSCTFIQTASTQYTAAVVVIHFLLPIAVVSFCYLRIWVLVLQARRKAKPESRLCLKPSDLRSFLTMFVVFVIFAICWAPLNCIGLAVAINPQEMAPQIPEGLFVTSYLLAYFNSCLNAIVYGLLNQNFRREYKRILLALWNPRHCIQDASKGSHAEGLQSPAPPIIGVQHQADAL

Rattus norvegicus [3] = species on record: Rattus norvegicus; test: Anxiolytic activity in Sprague-Dawley rat by elevated plus maze test; type: functional, organism-based
Rattus norvegicus [4] = test: Sleep promoting activity in rat assessed as increase in duration of slow wave sleep at 40 mg/kg, sc; type: functional, organism-based; parameters: dose 40 mg/kg
Rattus norvegicus [5] = test: Sleep promoting activity in rat assessed as increase of paradoxical sleep latency at 40 mg/kg, sc; type: functional, organism-based; parameters: dose 40 mg/kg
Rattus norvegicus [6] = test: Sleep promoting activity in rat assessed as decrease in latency at 40 mg/kg, sc; type: functional, organism-based; parameters: dose 40 mg/kg

Melatonin receptor type 1A, sequence (P48039 whole entry): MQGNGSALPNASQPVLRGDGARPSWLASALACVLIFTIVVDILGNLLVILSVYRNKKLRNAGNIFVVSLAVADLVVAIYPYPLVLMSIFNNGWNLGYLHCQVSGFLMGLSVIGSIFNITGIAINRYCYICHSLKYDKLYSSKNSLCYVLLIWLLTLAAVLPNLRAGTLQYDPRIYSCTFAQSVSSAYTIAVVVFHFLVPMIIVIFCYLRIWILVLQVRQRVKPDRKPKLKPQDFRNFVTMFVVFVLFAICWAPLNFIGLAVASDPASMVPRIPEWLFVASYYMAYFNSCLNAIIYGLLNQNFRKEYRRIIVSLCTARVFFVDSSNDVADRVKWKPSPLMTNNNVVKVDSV

SMILES | pKi [1] | pKi [2] | also measured
COc1cccc(OCCNC(C)=O)c1 | 8.14 | 7.90 | –
COc1cccc(N(CCNC(C)=O)c2ccccc2)c1 | – | – | Activity (Rattus norvegicus [3]): Active; Activity (Rattus norvegicus [4]): Active; Activity (Rattus norvegicus [5]): Active; Activity (Rattus norvegicus [6]): Active
COc1cccc(N(CCNC(=O)C2CCC2)c2ccccc2)c1 | 6.49 | – | –
COc1cccc(NCCNC(C)=O)c1 | – | 8.13 | –
